According to patent US4540700A, “Treatment of diabetic complications with certain spiro-imidazolidine-diones” (Alcon Laboratories, Inc., priority 1984, dated 1985):

Tested on: cataract formation in galactocemic rats
Assay: in vivo dose response by intubation (per oral) in galactocemic rats, cataract (vacuole) formation
Design: species or system Charles River CD (Sprague-Dawley derived) male rats
Details: for Relative Potency (antilog) / log relative potency for eyes with vacuoles or more advanced cataracts: observation day 12, 95% confidence limits
Protocol: B. In vivo dose response studies were conducted to test the in vivo activity of the following compounds by intubation (per oral) in galactocemic rats on a 30% galactose diet previously described:
Stock suspensions of the test compounds and all dilutions of the compound were formulated with 0.03% by weight Tween 80.
Healthy, Charles River CD (outbred albino, Sprague-Dawley derived) male rats, aged 20-30 days, without observable ocular defects and ranging in weight from 35-45 grams, were acclimated to experimental conditions (in quarantine) for two days prior to beginning the study.
Rats were individually assigned to one of twenty-three groups according to a random number schedule. Two rats, belonging to the same drug-diet treatment group, were housed per cage. Treatment and control groups consisted of six (6) rats each with no replacement in the event of death, and were designated as follows:
Lenses of all eyes were examined with a hand-held ophthalmoscope in the early stages of cataract development and a penlight for the stages, snowflake-like, snowflake, and nuclear cataract. Lens grading occurred every day for the first ten study days, and then every other day until study Day 14.
The relative potency determination was made at 7 drug levels over half log dose intervals. The response (percent cataracts formed and/or the time to cataract formation) was plotted against mg/kg and/or moles/kg.
The study was directed to the suppression and/or elimination of the initial stages of cataract development characterized by vacuoles or snowflake-likeopacities only. It was assumed therefore that suppression and/or elimination of vacuoles or lens opacification by the test drugs affects the transport, absorption and/or metabolism of galactose in such a manner as to prevent subsequent osmotic disturbances normally leading to tissue degeneration and advanced cataract. Advanced cataract defined as stages 2-4 of the Sipple classification was assumed to be of secondary importance to the etiology of cataract inhibition.
In the event where cataract stage other than vacuole formed, such as snowflake-like opacities, this cataract was counted similarly as vacuole in percent cataract formation.
This study yielded this expected effect in the control groups.
All animals were fed Purina Laboratory Chow and water, ad libitum, for the two day acclimation period. All drugs were dosed orally by intubation using an animal feeding needle (Popper and Sons), 18 or 20 gauge, attached to a 1 or 3 ml syringe. Once the dosing time schedule was established, the schedule was followed throughout the study to compensate for any diurnal variation.
The animals were kept on a twelve hour day/night cycle. The temperature and humidity were determined each day at the scheduled dosing time of 1:00 p.m.
The animals were weighed every other day and adjustments to dosage amounts to compensate for weight gain were made each day prior to the dose time. All food was routinely withheld from all animal groups for four hours (9:00 a.m.) prior to the drug dose and restored two hours (3:00 p.m.) post-dose. Otherwise sufficient amounts of chow or diet mixture were maintained in the food hopper to allow the animals to eat ad libitum. There were two days of drug dosage with the animals remaining on Purina Laboratory Chow (Days 1 and 2). The 30% galactose diet mixture was introduced to the animals two hours post-dose on Day 3 which constituted Day 1 of the study.
All eyes were examined with a hand-held ophthalmoscope and/or penlight at the times designated in the Experimental Design section.
It has been found in previous studies that dilation of the eye with a mydriactic (i.e. Mydriacyl) is not necessary for accurate grading, due to the semi-transparent nature of the rat iris. In the early stages (i.e., grades -, ±, and +) the lens was observed by reflecting the ophthalmoscope beam off the retina back through the lens and iris. Using this technique, vacuoles appear as dark, almost opaque patches. […]

`O=C1NC(=O)C2(N1)c1cc(F)ccc1-c1ccc(F)cc12` [M, Spiro-[2,7-difluorofluoren-9,4'-imidazolidine]-2',5'-dione] was tested, and the “Percent of Rat Eyes With at Least Vacuoles Formed” value (shortened to “Percent”) (4.0 mg/kg p.o., Day 9) was 0.0%, the “Percent” value (4.0 mg/kg p.o., Day 9, listed as 2,7-difluoro) was 0% and the “Percent” value (4.0 mg/kg p.o., Day 10) was 0.0%. The “Percent” value (4.0 mg/kg p.o., Day 10, listed as 2,7-difluoro) was 0%, the “Percent” value (4.0 mg/kg p.o., Day 12) was 0.0% and the “Percent” value (4.0 mg/kg p.o., Day 12, listed as 2,7-difluoro) was 0%. For the same compound, the “Percent” value (4.0 mg/kg p.o., Day 14) was 0.0%, the “Percent” value (4.0 mg/kg p.o., Day 14, listed as 2,7-difluoro) was 0% and the “Percent” value (12.6 mg/kg p.o., Day 0) was 0%. The “Percent” value (12.6 mg/kg p.o., Day 1) was 0%, the “Percent” value (12.6 mg/kg p.o., Day 2) was 0% and the “Percent” value (12.6 mg/kg p.o., Day 3) was 0%. For the same compound, the “Percent” value (12.6 mg/kg p.o., Day 4) was 0%, the “Percent” value (12.6 mg/kg p.o., Day 5) was 0% and the “Percent” value (12.6 mg/kg p.o., Day 6) was 0.0%. The “Percent” value (12.6 mg/kg p.o., Day 6, listed as 2,7-difluoro) was 0%, the “Percent” value (12.6 mg/kg p.o., Day 7) was 0.0% and the “Percent” value (12.6 mg/kg p.o., Day 7, listed as 2,7-difluoro) was 0%. The “Percent” value (12.6 mg/kg p.o., Day 8) was 0.0%, the “Percent” value (12.6 mg/kg p.o., Day 8, listed as 2,7-difluoro) was 0% and the “Percent” value (12.6 mg/kg p.o., Day 9) was 0.0%. The “Percent” value (12.6 mg/kg p.o., Day 9, listed as 2,7-difluoro) was 0%, the “Percent” value (12.6 mg/kg p.o., Day 10) was 0.0% and the “Percent” value (12.6 mg/kg p.o., Day 10, listed as 2,7-difluoro) was 0%. The “Percent” value (12.6 mg/kg p.o., Day 12) was 0.0%, the “Percent” value (12.6 mg/kg p.o., Day 12, listed as 2,7-difluoro) was 0% and the “Percent” value (12.6 mg/kg p.o., Day 14) was 0.0%. For the same compound, the “Percent” value (12.6 mg/kg p.o., Day 14, listed as 2,7-difluoro) was 0%, the “Percent” value (40 mg/kg p.o., Day 0) was 0% and the “Percent” value (40 mg/kg p.o., Day 1) was 0%. For the same compound, the “Percent” value (40 mg/kg p.o., Day 2) was 0%, the “Percent” value (40 mg/kg p.o., Day 3) was 0% and the “Percent” value (40 mg/kg p.o., Day 4) was 0%. The “Percent” value (40 mg/kg p.o., Day 5) was 0%, the “Percent” value (40 mg/kg p.o., Day 6) was 0.0% and the “Percent” value (40 mg/kg p.o., Day 6, listed as 2,7-difluoro) was 0%. The “Percent” value (40 mg/kg p.o., Day 7) was 0.0%, the “Percent” value (40 mg/kg p.o., Day 7, listed as 2,7-difluoro) was 0% and the “Percent” value (40 mg/kg p.o., Day 8) was 0.0%. The “Percent” value (40 mg/kg p.o., Day 8, listed as 2,7-difluoro) was 0%, the “Percent” value (40 mg/kg p.o., Day 9) was 0.0% and the “Percent” value (40 mg/kg p.o., Day 9, listed as 2,7-difluoro) was 0%. The “Percent” value (40 mg/kg p.o., Day 10) was 0.0%, the “Percent” value (40 mg/kg p.o., Day 10, listed as 2,7-difluoro) was 0% and the “Percent” value (40 mg/kg p.o., Day 12) was 0.0%. The “Percent” value (40 mg/kg p.o., Day 12, listed as 2,7-difluoro) was 0%, the “Percent” value (40 mg/kg p.o., Day 14) was 0.0% and the “Percent” value (40 mg/kg p.o., Day 14, listed as 2,7-difluoro) was 0%. The “activity in vivo relative to the Sarges compound” value (rat studies) was “unexpectedly and significantly more active”, the “Relative Potency (antilog)” value (relative to 2-fluoro (L)) was 2.80 and the “log relative potency for eyes with vacuoles or more advanced cataracts” value (relative to 2-fluoro (L)) was 0.4473. The “Relative Potency (antilog)” value (relative to Sarges Racemic) was 12.92 and the “log relative potency for eyes with vacuoles or more advanced cataracts” value (relative to Sarges Racemic) was 1.1114.
